{
  "source": "PubChem BioAssay AID1996",
  "data": [
    {"settings": "buffer; pH 7.4; 200.0 µM", "units": {"solubility kinetic": "µg/mL"}, "values": [
      {"smiles": "Cn1cccc1C(=O)OCC(=O)N1CCc2ccccc21", "solubility kinetic": 2.8},
      {"smiles": "CC1CCCCC1NC(=O)c1cc(=O)[nH]c2ccccc12", "note": "(stereo not given)", "solubility kinetic": 3.6},
      {"smiles": "Cc1ccc2[nH]c(=O)c(CC(=O)O)c(-c3ccccc3)c2c1", "solubility kinetic": "> 44"},
      {"smiles": "CC1=CC(C)(C)N(C(=O)CN2C(=O)CCC2=O)c2ccccc21", "solubility kinetic": "> 46.9"},
      {"smiles": "O=C(N/C(=C/c1ccco1)C(=O)N1CCOCC1)c1cccs1", "solubility kinetic": "> 49.9"},
      {"smiles": "COC(=O)c1ccccc1NC(=O)c1onc(C)c1Cl", "solubility kinetic": "< 0.3"},
      {"smiles": "Cc1ccccc1C(=O)N[C@H](C(=O)OCC(=O)NC1CC1)C(C)C", "solubility kinetic": "> 49.9"},
      {"smiles": "COc1ccc(NC(=S)NC(=O)c2ccc3c(c2)OCCO3)cc1", "solubility kinetic": 2.1},
      {"smiles": "O=C(Nc1cccc2ccccc12)c1ccc([N+](=O)[O-])o1", "solubility kinetic": 40.3},
      {"smiles": "CN(C)C(CNC(=O)c1ccc2ccccc2n1)c1ccccc1", "note": "(stereo not given)", "solubility kinetic": 27.5},
      {"smiles": "Cn1c(SCCc2ccc([N+](=O)[O-])cc2)nccc1=O", "solubility kinetic": 25.9},
      {"smiles": "COc1ccc2nc(NC(=O)c3ccco3)sc2c1", "solubility kinetic": 7.4},
      {"smiles": "Cc1cnc(C(=O)Nc2cc(F)ccc2C)cn1", "solubility kinetic": 15.6},
      {"smiles": "COc1cc(C)ccc1OCC(=O)NCC1CCCO1", "note": "(stereo not given)", "solubility kinetic": "> 41.9"},
      {"smiles": "O=c1c2ccccc2nc(-c2ccco2)n1CCc1ccc(O)cc1", "solubility kinetic": 7.9},
      {"smiles": "COC(=O)CSc1nc(N)c(C#N)c(-c2ccc(O)cc2)c1C#N", "solubility kinetic": 0.6},
      {"smiles": "COc1ccc(CCNC(=O)/C=C/C(=O)O)cc1OC", "solubility kinetic": "> 41.9"},
      {"smiles": "Cc1ccc(S(=O)(=O)n2ccc3c2CCCC3=O)cc1", "solubility kinetic": "> 43.4"},
      {"smiles": "Cc1cccc(NC(=O)CCN2CCCC(C)C2)c1.Cl", "note": "(stereo not given)", "solubility kinetic": "> 44.5"},
      {"smiles": "N#CC1(N2CCN(C(=O)c3ccccc3)CC2)CCCCC1", "solubility kinetic": 35.9},
      {"smiles": "CC1CN(C(=O)COC(=O)c2ccc(Cl)c(N)c2)CC(C)O1", "note": "(stereo not given)", "solubility kinetic": "> 49"},
      {"smiles": "CCCCc1nnc(SCC(=O)Nc2nccs2)n1CC", "solubility kinetic": "> 48.8"},
      {"smiles": "Cc1ccccc1CNC(=O)C1CCC(=O)N(C2CC2)C1", "note": "(stereo not given)", "solubility kinetic": 36.8},
      {"smiles": "Fc1ccccc1-c1nc2ncccc2o1", "solubility kinetic": 31},
      {"smiles": "O=C(Nc1ccccc1N1CCOCC1)C1CCCO1", "note": "(stereo not given)", "solubility kinetic": "> 41.5"},
      {"smiles": "CC(C)NC(=O)/C=C/C(=O)O", "solubility kinetic": 22.3},
      {"smiles": "O=c1oc2ccccc2n1Cc1cccc(Cl)c1", "solubility kinetic": 0.8},
      {"smiles": "CC(=O)N1CCN(C(=O)CNC(=O)c2ccc(Br)o2)CC1", "solubility kinetic": "> 53.7"},
      {"smiles": "Cc1cc(=O)c(C(=O)O)nn1-c1cccc(C(F)(F)F)c1", "solubility kinetic": "> 44.7"},
      {"smiles": "O=C(Cc1ccccc1)NCC(=O)OCC(=O)c1ccc(F)cc1", "solubility kinetic": "> 49.4"},
      {"smiles": "Cc1ccc(C(=O)Nc2nc3ccc(S(C)(=O)=O)cc3s2)cc1C", "solubility kinetic": "< 0.4"},
      {"smiles": "CC(C)c1ccc(OCc2ccc(C(=O)N(C)C)o2)cc1", "solubility kinetic": 33.2},
      {"smiles": "CCOc1ccc(NC(=O)c2ccc(NC(=O)c3ccc(NC(N)=O)cc3)cc2)cc1", "solubility kinetic": 2},
      {"smiles": "NC(=O)Nc1ccc(C(=O)OCC(=O)NC2CCCc3ccccc32)cc1", "note": "(stereo not given)", "solubility kinetic": 11},
      {"smiles": "Cc1[nH]c2ccccc2c1CCNC(=O)c1ccc2nccnc2c1", "solubility kinetic": 41.1},
      {"smiles": "O=C(COc1ccccc1)N1CCN=C1SCc1cccc(F)c1", "solubility kinetic": 3.4},
      {"smiles": "Cc1cccc(NC(=O)Nc2ccc(Br)cc2)n1", "solubility kinetic": "< 0.2"},
      {"smiles": "Cn1ccnc1C(=O)c1ccc(S(=O)(=O)N2CCCC2)cc1", "solubility kinetic": "> 47.9"},
      {"smiles": "O=C(c1cccnc1Cl)N(Cc1ccccc1)Cc1ccccc1", "solubility kinetic": 39.5},
      {"smiles": "CCN(CC)c1ccc(CNc2nc3ccccc3n2CC)cc1", "solubility kinetic": 10.9},
      {"smiles": "CSc1nc(C)nc(C2CC2)c1C#N", "solubility kinetic": 1.2},
      {"smiles": "Cc1cccc(NC(=O)CN(C)C(=O)c2ccc(N3CCCCCC3)c([N+](=O)[O-])c2)c1C", "solubility kinetic": 11.4},
      {"smiles": "CN(C)CCSc1nc2cc(S(=O)(=O)N3CCCCC3)ccc2o1", "solubility kinetic": 41.7},
      {"smiles": "COCCn1c(-c2ccc(F)cc2)nc2oc3cc(OC)ccc3c(=O)c2c1=O", "solubility kinetic": 21.1},
      {"smiles": "COc1ccc(NC(=O)C(CC(=O)O)C(C)c2ccccc2)cc1", "note": "(stereo not given)", "solubility kinetic": "> 49.1"},
      {"smiles": "CC1CN(C(=O)c2ccc(-c3ccccc3Cl)o2)CC(C)O1", "note": "(stereo not given)", "solubility kinetic": 34.8},
      {"smiles": "CCC(=O)N1CCc2cc(S(=O)(=O)Nc3ccccc3C)ccc21", "solubility kinetic": "< 0.4"},
      {"smiles": "COC(=O)c1ccc2nc(-c3ccc4c(c3)OCO4)cn2c1", "solubility kinetic": 1.2},
      {"smiles": "CCOc1ccccc1C1NC(=O)c2ccccc2O1", "note": "(stereo not given)", "solubility kinetic": 35.2},
      {"smiles": "COC(=O)c1sccc1NC(=O)Nc1ccc(OC)cc1", "solubility kinetic": 40},
      {"smiles": "COc1nc(N(C)C)nc(N(C#N)S(=O)(=O)c2ccc(C)cc2)n1", "solubility kinetic": 51.7},
      {"smiles": "CN1CCN(c2nc(-c3cccc([N+](=O)[O-])c3)nc3ccccc23)CC1", "solubility kinetic": 8.5},
      {"smiles": "Cc1cccc2c3nc4ccccc4nc3n(C)c12", "solubility kinetic": "< 0.2"},
      {"smiles": "Cc1cc(C)c(S(=O)(=O)c2ccccc2)c(=O)[nH]1", "solubility kinetic": "> 39.5"},
      {"smiles": "Cc1cc(C)nc(SCc2ccc(Br)cc2)n1", "solubility kinetic": 1.5},
      {"smiles": "NC(=O)NC(=O)COC(=O)c1cccnc1Nc1ccccc1F", "solubility kinetic": 4.6},
      {"smiles": "CC(O)c1nc2ccccc2n1Cc1ccccc1", "note": "(stereo not given)", "solubility kinetic": 35.6},
      {"smiles": "O=C1CC(C2CCCO2)C(=O)N1c1ccc(Cl)c(Cl)c1", "note": "(stereo not given)", "solubility kinetic": "> 47.1"},
      {"smiles": "CCN(CC)C(=O)C(Oc1ccc(C)nc1[N+](=O)[O-])c1ccccc1", "note": "(stereo not given)", "solubility kinetic": 48.6},
      {"smiles": "COc1ccc(NC(=O)CN2C(=O)NC3(CCCCC3C)C2=O)cc1S(=O)(=O)N1CCOCC1", "note": "(stereo not given)", "solubility kinetic": "> 74.2"}
    ]}
  ]
}
